Test results from patent US9969701B2, “Salts and co-crystals of lesinurad” (CRYSTAL PHARMATECH, INC., priority 2013, dated 2018).
In brackets after ≈: the same amount, converted by molar mass.

Legend:
[1] = Stability assessment under stress conditions (solid form by XRPD after storage); assay type: physicochemical; conditions: 14 days; for Stability under stress conditions: 25° C./60% RH and 40° C./75% RH; for Final form: XRPD
Method: Analytical Instrument: Panalytical Empyrean. The X-ray powder diffractogram was determined by mounting a sample of the crystalline material on a Si single crystal low-background holder and spreading out the sample into a thin layer with the aid of a microscope slide. The 2θ position was calibrated against Panalytical 640 Si powder standard. The sample irradiated with X-rays generated by a copper long-fine focus tube operated at 45 kV and 40 mA with a wavelength of Kα1=1.540589 angstroms and Kα2=1.544426 angstroms (Kα1/Kα2 intensity ratio is 0.50). The collimated X-ray source was passed through a programmed divergence slit set at 10 mm and the reflected radiation directed through a 5.5 mm anti-scattering slit. The sample was exposed for 16.3 seconds per 0.013° 2-theta increment (continuous scan mode) over the range 3 degrees to 40 degrees 2-theta in theta-theta mode. The running time was 3 minutes and 57 seconds. The instrument was equipped with an RTMS detector (X'Celerator). Control and data capture was accomplished by means of a Dell Optiplex 780 XP operating with data collector software.
The solid samples were analyzed by […].
The solid samples were analyzed by XRPD.

[2] = Hygroscopicity assessment by dynamic vapor sorption (DVS); assay type: physicochemical
Method: Dynamic Vapor Sorption (DVS) was measured via a SMS (Surface Measurement Systems) DVS Intrinsic. The relative humidity at 25° C. was calibrated against deliquescence point of LiCl, Mg(NO3)2 and KCl. Typical Parameters for DVS test are listed below.
Gas and flow rate: N2, 200 mL/min

[3] = Kinetic solubility in bio-relevant media (FaSSIF, FeSSIF), HPLC quantification; assay type: physicochemical; conditions: thermodynamic from solid, RT; for solubility at 1 h: time point 1 h; for solubility at 4 h: time point 4 h; for solubility at 24 h: time point 24 h
Method: 2. Add 3 mL of bio-relevant medium into each vial.
3. Cap the vials and keep all the suspension samples stirring at RT (room temperature) using a rolling incubator at a rate of 25 r/min.
4. Sample at 1 h, 4 h and 24 h respectively. About 0.6 mL aliquot of the suspension is transferred per time from solubility vial into a centrifuge filtration tube (pore size of 0.45 μm).
5. Centrifuge filtration tubes at a rate of 8500 rpm for 3 minutes at RT, collect 0.2 mL of supernatant for HPLC quantification determination and collect the rest of solution for pH measurement, and separate the solid for XRPD characterization.

gout patients = gout patients who did not get benefit from allopurinol and febuxostat; lesinurad alone; cited from earlier work
[4] = FaSSIF (fasted state simulated intestinal fluid), FaSSIF
[5] = FeSSIF (fed state simulated intestinal fluid), FeSSIF

Stability under stress conditions [1] | Final form ([1]; stored under 25° C./60% RH) | Final form ([1]; stored under 40° C./75% RH) | Water uptake under 80% RH ([2]; 25° C., 80% RH) [%] | Water uptake under 95% RH ([2]; 25° C.) [%] | SMILES | further results
stable | co-crystal | co-crystal | – | – | O=C(O)CSc1nnc(Br)n1-c1ccc(C2CC2)c2ccccc12.O=C(O)[C@@H]1CCCN1 | –
stable | calcium salt Form A | calcium salt Form A | 0.15 | 0.33 | O=C([O-])CSc1nnc(Br)n1-c1ccc(C2CC2)c2ccccc12.O=C([O-])CSc1nnc(Br)n1-c1ccc(C2CC2)c2ccccc12.[Ca+2] [calcium salt Form A] | Hygroscopicity ([2]; 80% RH, 25° C., European pharmacopoeia criteria): almost not hygroscopic; Deliquescence under high humidity conditions ([2]; high humidity): does not deliquesce
– | – | – | – | – | O=C(O)CSc1nnc(Br)n1-c1ccc(C2CC2)c2ccccc12 [lesinurad freeacid, 2-((5-bromo-4-(4-cyclopropylnaphthalen-1-yl)-4H-1,2,4-triazol-3-yl)thio)acetic acid] | solubility at 1 h [3, 4]: 2890 µg/mL (≈ 7.15 mM); solubility at 4 h [3, 4]: 3580 µg/mL (≈ 8.86 mM); solubility at 24 h [3, 4]: 3000 µg/mL (≈ 7.42 mM); solubility at 1 h [3, 5]: 1510 µg/mL (≈ 3.72 mM); solubility at 4 h [3, 5]: 2140 µg/mL (≈ 5.29 mM); solubility at 24 h [3, 5]: 1930 µg/mL (≈ 4.78 mM); Serum levels of uric acid (gout patients): significantly reduced
– | – | – | 25.11 | 32.13 | O=C([O-])CSc1nnc(Br)n1-c1ccc(C2CC2)c2ccccc12.[Na+] [sodium salt Form A, reference compound] | –
